# T1: Caci_0382 (Catenulispora acidiphila, UniProt C7PVH9)
# T1 construct: homodimer
# T1 sequence (C7PVH9 1-134): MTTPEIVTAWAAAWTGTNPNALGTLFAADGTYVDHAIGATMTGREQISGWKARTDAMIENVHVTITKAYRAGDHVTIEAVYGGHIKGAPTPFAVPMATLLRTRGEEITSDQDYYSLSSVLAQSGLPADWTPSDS
# Key:
# Caci_0382 [1] = biological target: T1, Caci_0382; experiment: fluorescence thermal shift (Sypro Orange); format: binding; conditions: 20 mM Hepes pH 7.5, 150 mM NaCl; 14 μM protein; printed as Tm but evidently the Tm shift; unit and concentration not given; in °C (unit assumed)
# Caci_0382 [2] = biological target: T1, Caci_0382; experiment: fluorescence thermal shift (Sypro Orange); format: binding; conditions: read-out: Tm shift at 0.1 mM
# [3] = biological target: the molecule itself; experiment: SEC; gel-filtration chromatography, data not shown
molecule,measurement,setting,value
c1c[nH]cn1 [Imidazole],Tm,Caci_0382 [1],10.26
"CN(C)C [TMA, trimethylamine]",ΔTm at 100 µM,Caci_0382 [2],3 °C
"Caci_0382 from Catenulispora acidiphila DSM 44928 (natural protein, selenomethionine-labeled, Caci_0382, hypothetical protein of the NTF2-like family, Catenulispora acidiphila DSM 44928; the gene encodes a 134 amino-acid protein of 14.3 kDa; Subcloned in the pMCSG57 vector, which adds a 6 His-Tag at the N-terminus; 131 Calpha atoms per subunit were aligned between the two crystal forms; also called hypothetical protein Caci_0382) MTTPEIVTAWAAAWTGTNPNALGTLFAADGTYVDHAIGATMTGREQISGWKARTDAMIENVHVTITKAYRAGDHVTIEAVYGGHIKGAPTPFAVPMATLLRTRGEEITSDQDYYSLSSVLAQSGLPADWTPSDS",stoichiometry N,[3],2

# From paper PMC3955178, “Structural characterization of a hypothetical protein: a potential agent involved in trimethylamine metabolism in Catenulispora acidiphila” (Journal of Structural and Functional Genomics, 2014)
